The record followed here is patent publication US20230248835A1, “COMPOUNDS, COMPOSITIONS, AND METHODS FOR THE TREATMENT OF FIBROTIC DISEASES AND CANCER” (Purdue Research Foundation, priority 2020, published 2023).

Experiment [1] concerns human peripheral blood mononuclear cells (PBMCs). In words: IL-6 production in human PBMCs treated with TLR7 agonists (ELISA). Format: cell-based. The conditions noted are these: 24 hours, compared to control Compound A (TLR7-1), FIG. 2. As to the method:
To evaluate the efficacy of TLR-7 agonists, Compounds 1 (TLR7-1A), 2 (TLR7-1B) and 3 (TLR7-1C) were treated with human peripheral blood mononuclear cells (PBMCs) for 24 hours and cytokine production was thereafter assessed. Human PBMCs were isolated from healthy donors by density gradient centrifugation following standard procedure. 18 mL of blood were diluted with 2% fetal bovine serum (FBS) in phosphate-buffered saline (PBS) (1:1 dilution) and transferred slowly into a 50 mL SepMate™ PBMC isolation tube containing 12 mL of Ficoll-Paque®. The tube was centrifuged at 1200 g for 10 minutes and PBMCs were transferred into a fresh 50 mL tube.
PBMCs were washed with 2×50 mL of 2% FBS in PBS and plated in 96 well plate at a density of 2×10^5 cells/200 μL RPMI medium. This was treated with different concentrations of TLR7 agonist for 24 hours.
Compound A (TLR7-1) was used as control. Cell culture supernatants were isolated and cytokine levels were calculated using an enzyme-linked immunosorbent assay (ELISA) kit (FIG. 2).
In general terms: ELISA stands for enzyme-linked immunosorbent assay.

Experiment [2] is described as follows: Systemic cytokine release in healthy mice after tail vein injection. The conditions noted are these: healthy Balb/c mice, 10 nmol tail vein, 1 hour or 1.5 hours after treatment. The format is in vivo. From the text:
Female Balb/c mice were purchased from Charles Rivers, housed in a sterile environment on a standard 12-hour light-dark cycle, and maintained on a folate-deficient diet. All animal procedures were approved by the Purdue Animal Care and Use Committee in accordance with National Institutes of Health guidelines.
Healthy mice were tail vein injected with 10 nmol Compound A (TLR7-1) or Compound 1 (TLR7-1A), and peripheral blood was collected at indicated time points after drug injection. (FIGS. 3C and 3D). The effect of drug on plasma levels of IL-6 (FIG. 3C), and tumor necrosis factor alpha (TNF-α) (FIG. 3D) was determined at 1 hour or 1.5 hours after treatment. Both Compounds A and 1 stimulated systemic cytokine release in healthy mice.

Experiment [3] relates to mouse bone marrow-derived M2-macrophages. In words: Macrophage polarization in mouse bone marrow-derived M2 macrophages (ELISA). Format: cell-based. As to conditions: 48 hours. Here is the method:
Bone marrow cells were isolated from tibias and femurs of male C57BL/6 mice and were differentiated to macrophages with mouse M-CSF (20 ng/mL). The macrophages were then polarized to M2 phenotype with 20 ng/mL of […] for 48 hours. Interferon-γ (IFN-γ), interleukin-4 (IL-4), and interleukin-13 (IL-13) were obtained from Biolgend (San Diego, Calif.). Lipopolysaccharide (LPS) was purchased from Sigma-Aldrich (St. Louis, Mo.).
The resulting M2 macrophages were then incubated with varying concentrations of Resiquimod, GSK2245035, Compound 1, Compound 2, and Compound 3 for 48 hours. Supernatant was harvested and cytokines were analyzed using ELISA. (Resiquimod and GSK2245035 are known TLR7 agonists.)

Experiment [4] relates to human primary monocyte derived M2-macrophages. As to the kind of experiment: Cytokine induction in human primary monocyte derived M2-macrophages. The format is cell-based. The conditions noted are these: 48 hours; for induction of interleukin-6 (IL-6): compared to parent compound TLR7-1, FIG. 3A; for induction of C-X-C motif chemokine ligand 10 (CXCL-10): compared to parent compound TLR7-1, FIG. 3B; for polarization of M2 macrophages to M1 macrophages: shown by increased M1 markers IL-6 and CXCL10.

For another experiment, the system named is 4T1 metastatic tumor. In words: 4T1 metastatic tumor model, lung metastatic colony formation (6-thioguanine assay). As to conditions: Balb/c mice, 50 nmole/kg intravenously once/week. Format: in vivo. As to the method: Additional 4T1 solid tumor metastatic studies were also performed. There, lung metastatic colony formation assay was carried out following the reported procedure (Cresswell et al., Folate receptor beta designates immunosuppressive tumor-associated myeloid cells that can be reprogrammed with folate-targeted drugs, Cancer Research 2021, 81(3), 671-684). 6-8 weeks old Balb/c mice were implanted with 50,000 4T1 cells in the mammary fat pad and tumors were allowed to grow until they reached ˜50 mm^3. Mice were then injected intravenously with 100 μl of Folate-TLR7 conjugate (Compound 4) (50 nmole/kg) once/week. The control group received an equal volume of PBS on the same schedule. At the end of the treatment, metastasis in lung was evaluated in disease control and treatment group by co-culturing lung-digested cells with 6-thioguanine ([…]) in complete RPMI-1640 media for 10 days in petri plates. Metastatic colonies were visualized by fixing the plates with 5 mL of methanol followed by 5 mL deionized water wash and then stained with 0.03% methylene blue (see FIG. 15C). Total blue colonies from each plate were then counted.

For experiment [5], the system named is human PBMC-derived M2 macrophages. As to the kind of experiment: Surface markers during macrophage polarization (flow cytometry). The format is cell-based. As to conditions: 48 hours. As to the method: Human PMBC-derived M2 macrophages were treated with different concentrations of folate-TLR7 agonists (e.g., Compound 4) for 48 hours, and macrophage cells were detached using Accutase cell detachment Solution (Biolegend, San Diego, Calif.; #423201) and gently lifted with a cell scraper. Cells were washed with PBS and nonspecific binding was blocked by incubation with Fc receptor blocking solution (Biolegend, San Diego, Calif.) at room temperature for 10 minutes. The resulting single cell suspensions were stained for M2 macrophage marker CD206, and M1 macrophage markers CD80 and CD40. All the samples were then analyzed by flow cytometry.
(In flow cytometry, cells or beads pass a laser one at a time.)

The test system of a further experiment is 4T1 solid tumor. In words: 4T1 solid tumor model in mice. Format: in vivo. The conditions noted are these: BalB/c mice; for polarization of the macrophages from M2 to M1 phenotype in tumor: 4T1 solid tumors, flow cytometry; for tumor size: subcutaneous 4T1, intravenous, Compound 5 10 nmol/mouse, Compound 4 different concentrations. As to the method:
In additional in vivo studies, 6-8 week old female BalB/c mice (Charles River Laboratories International, Inc., Wilmington, Mass.) were transferred upon arrival to a folic acid-deficient diet (TD.95247, Envigo Corporation, Indianapolis, Ind.). On day 14, mice were implanted subcutaneously with 5.0×10^4 of 4T1 cells and tumors were allowed to grow until they reach ˜50 mm^3. Mice were then injected intravenously with different concentrations of 100 μl of Folate-TLR7 conjugate Compounds 4 or 10 nmol/mouse of Compound 5). Control groups received 100 μl of 3% DMSO in PBS on the same schedule.
Tumor volume was concurrently measured with calipers using the formula (a×b^2)/2 (a being the largest and b being the smallest diameter of the tumor) (see FIGS. 10A, 10B, and 14). When desired, mice were sacrificed, and derived tumor fragments were dissociated using a human tumor dissociation kit. The resulting single cell suspensions were stained for antibodies and the samples were then analyzed by flow cytometry. Percentage of CD4 and CD8 T cell populations were tested in live cells isolated from 4T1 solid tumors in groups of untreated control and Folate-TLR7 conjugate treatment groups.

The subject of experiment [6] is human PBMC-derived M2 macrophages. In words: Reprogramming of human PBMC-derived M2 macrophages by folate-TLR7 conjugates (qPCR, ELISA). Format: cell-based. As to conditions: increased M1 markers. As to the method:
To evaluate the efficacy of the releasable and non-releasable conjugates, freshly isolated PBMCs were plated with monocyte attachment medium at a seeding density of 1 million cells/cm^2. This was incubated for about 2 hours at 5% CO2 and 37° C. in the incubator. Non-adherent cells were removed, and the monocytes were washed three times with warm monocyte attachment medium. The monocytes were cultured in folate deficient RPMI 1640 medium. This was differentiated into unpolarized macrophages by incubating with fresh RPMI medium containing 20 ng/mL of M-CSF supplemented with 1% penicillin streptomycin (Invitrogen, Carlsbad, Calif.) and 10% FBS.
After 3 days, the medium was replaced with fresh RPMI medium containing 20 ng/mL of M-CSF. […]
qPCR analyses were performed using the iTaq™ Universal SYBR Green SuperMix (Bio-Rad Laboratories, Inc., Hercules, Calif.; #1725121), iCycler thermocycler, and iCycler iQ 3.0 software (Bio-Rad Laboratories Inc., Hercules, Calif.) to track the expression of markers characteristic of macrophage polarization states. […] Each sample was analyzed independently in triplicate for each marker. IL-6, CXCL-10 and TNF-α protein expression in the cell culture supernatants were calculated using the commercially available ELISA kits (Biolegend, San Diego, Calif.).
In general terms: In qPCR the cycle at which signal appears reflects the starting amount.

Regarding `CCCCc1nc2c(N)nc3ccccc3c2n1CC(C)(C)CO` [Compound 1, 3-(4-amino-2-butyl-1H-imidazo[4,5-c]quinolin-1-yl)-2,2-dimethylpropan-1-ol], the “expression of IL-6 in PBMCs” value in experiment [1] is “increased”. Also, in experiment [2], the “systemic cytokine release (plasma IL-6, TNF-α)” value was “stimulated”. Further, in experiment [3] (supernatant ELISA, FIG. 4A), the “M1 marker IL-6” value is recorded as “increase”. Also, the “M1 marker TNF-α” value in experiment [3] (supernatant ELISA, FIG. 4B) was “increase”. For the same compound, in experiment [3] (varying concentrations, FIGS. 4A and 4B), the “polarization of macrophages from M2 to M1 phenotype” value is “efficiently polarized”. Besides, in experiment [4], the “induction of interleukin-6 (IL-6)” value was “more efficiently”, the “induction of C-X-C motif chemokine ligand 10 (CXCL-10)” value (shortened to “induction … (CXCL-10)”) is “more efficiently” and the “polarization of M2 macrophages to M1 macrophages” value (“polarization of M2 macrophages” for short) is recorded as “polarize the M2 macrophages to M1 macrophages”.
In the case of `CCCCc1nc2c(N)nc3ccccc3c2n1CC(C)(C)CN` [Compound 2, 1-(3-amino-2,2-dimethylpropyl)-2-butyl-1H-imidazo[4,5-c]quinolin-4-amine], the “expression of IL-6 in PBMCs” value in experiment [1] was “increased”. Besides, in experiment [4], the “induction of interleukin-6 (IL-6)” value is recorded as “more efficiently”, the “induction … (CXCL-10)” value was “more efficiently” and the “polarization of M2 macrophages” value was “polarize the M2 macrophages to M1 macrophages”.
Take `CCCCc1nc2c(N)nc3ccccc3c2n1CC(C)(C)N` [Compound 3, 1-(2-amino-2-methylpropyl)-2-butyl-1H-imidazo[4,5-c]quinolin-4-amine]: in experiment [1], the “expression of IL-6 in PBMCs” value was “increased”. Besides, in experiment [4], the “induction of interleukin-6 (IL-6)” value is “more efficiently”, the “induction … (CXCL-10)” value is “more efficiently” and the “polarization of M2 macrophages” value is given as “polarize the M2 macrophages to M1 macrophages”.
`CCCCc1nc2c(N)nc3ccccc3c2n1CC(C)(C)COCCOCCOCCOCCNC(=O)CC[C@H](NC(=O)c1ccc(NCc2cnc3nc(N)[nH]c(=O)c3n2)cc1)C(=O)O` [Compound 4, (S)-1-(4-amino-2-butyl-1H-imidazo[4,5-c]quinolin-1-yl)-20-(4-(((2-amino-4-oxo-3,4-dihydropteridin-6-yl)methyl)amino)benzamido)-2,2-dimethyl-17-oxo-4,7,10,13-tetraoxa-16-azahenicosan-21-oic acid]: the “number of metastatic colonies (lung)” value in the experiment with 4T1 metastatic tumor (6-thioguanine assay, FIG. 15B-C) was “significantly decreased”. Also, the “volume of the tumor” value with 4T1 metastatic tumor (4T1 in mammary fat pad, FIG. 15A) is given as “significantly decreased”. The “M1 surface marker CD40” value in experiment [5] (FIG. 12A) is “increased”. Also, in experiment [5] (FIG. 12B), the “M1 surface marker CD80” value is listed as “increased”. The “polarization of M2 macrophages” value in experiment [5] (FIGS. 12A and 12B) is listed as “polarized the M2 macrophages to M1 macrophages”; in experiment [6] (3 hours or 3+45 hours, FIGS. 11A-11D), “polarized the M2 macrophages to M1 macrophages”. In addition, in the experiment with 4T1 solid tumor, the “polarization of the macrophages from M2 to M1 phenotype in tumor” value was “shifted polarization of the macrophages from M2 to M1 phenotype”. Further, the tumor size entry in the experiment on 4T1 solid tumor is “reduction”.
`CCCCc1nc2c(N)nc3ccccc3c2n1CC(C)(C)COC(=O)OCCSSC[C@H](NC(=O)CCOCCOCCOCCNC(=O)CC[C@H](NC(=O)c1ccc(NCc2cnc3nc(N)[nH]c(=O)c3n2)cc1)C(=O)O)C(=O)O` [Compound 5]: in the experiment on 4T1 solid tumor, the “polarization of the macrophages from M2 to M1 phenotype in tumor” value is reported as “shifted polarization of the macrophages from M2 to M1 phenotype” and the tumor size result is listed as “reduction”. The “polarization of M2 macrophages” value in experiment [6] (3+45 hours, FIG. 9) is given as “polarized the M2 macrophages to M1 macrophages”.
